Legend:
Assay in all cases: relative viability (nuclei count vs DMSO), 5 days (fraction); higher = more cells survive
VX-11e + Lapatinib = compound: CC1=CN=C(N=C1C2=CNC(=C2)C(=O)N[C@H](CO)C3=CC(=CC=C3)Cl)NC4=C(C=C(C=C4)F)Cl [VX-11e] + CS(=O)(=O)CCNCc1ccc(-c2ccc3ncnc(Nc4ccc(OCc5cccc(F)c5)c(Cl)c4)c3c2)o1 [Lapatinib] (partner 2 µM)
Summary of the method: (§1)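 Relative viability was taken as the ratio of nuclei in treated wells to nuclei in vehicle wells. Lung cancer cell lines in 1536-well plates received compounds by pin tool one day after seeding, either one drug alone or a fixed anchor-drug dose plus five library-drug doses (not always all listed) in √10 steps. Nuclei were counted on 4× images after 5 days of treatment, and values are medians of duplicate plates.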

VX-11e + Decitabine = compound: CC1=CN=C(N=C1C2=CNC(=C2)C(=O)N[C@H](CO)C3=CC(=CC=C3)Cl)NC4=C(C=C(C=C4)F)Cl [VX-11e] + Nc1ncn([C@H]2C[C@H](O)[C@@H](CO)O2)c(=O)n1 [Decitabine] (partner 2 µM)
Summary of the method: as §1

VX-11e + Tozasertib = compound: CC1=CN=C(N=C1C2=CNC(=C2)C(=O)N[C@H](CO)C3=CC(=CC=C3)Cl)NC4=C(C=C(C=C4)F)Cl [VX-11e] + Cc1cc(Nc2cc(N3CCN(C)CC3)nc(Sc3ccc(NC(=O)C4CC4)cc3)n2)n[nH]1 [Tozasertib] (partner 0.1 µM)
Summary of the method: as §1

VX-11e + Crizotinib = compound: CC1=CN=C(N=C1C2=CNC(=C2)C(=O)N[C@H](CO)C3=CC(=CC=C3)Cl)NC4=C(C=C(C=C4)F)Cl [VX-11e] + C[C@@H](Oc1cc(-c2cnn(C3CCNCC3)c2)cnc1N)c1c(Cl)ccc(F)c1Cl [Crizotinib] (partner 1 µM)
Summary of the method: as §1

Cell Line	relative viability (VX-11e + Lapatinib; first compound 0.04 µM)	relative viability (VX-11e + Lapatinib; first compound 0.1265 µM)	relative viability (VX-11e + Lapatinib; first compound 0.4 µM)	relative viability (VX-11e + Lapatinib; first compound 1.265 µM)	relative viability (VX-11e + Lapatinib; first compound 4 µM)	relative viability (VX-11e + Decitabine; first compound 0.04 µM)	relative viability (VX-11e + Decitabine; first compound 0.1265 µM)	relative viability (VX-11e + Decitabine; first compound 0.4 µM)	relative viability (VX-11e + Decitabine; first compound 1.265 µM)	relative viability (VX-11e + Decitabine; first compound 4 µM)	relative viability (VX-11e + Tozasertib; first compound 0.04 µM)	relative viability (VX-11e + Tozasertib; first compound 0.1265 µM)	relative viability (VX-11e + Tozasertib; first compound 0.4 µM)	relative viability (VX-11e + Tozasertib; first compound 1.265 µM)	relative viability (VX-11e + Tozasertib; first compound 4 µM)	relative viability (VX-11e + Crizotinib; first compound 0.04 µM)	relative viability (VX-11e + Crizotinib; first compound 0.1265 µM)	relative viability (VX-11e + Crizotinib; first compound 0.4 µM)	relative viability (VX-11e + Crizotinib; first compound 1.265 µM)	relative viability (VX-11e + Crizotinib; first compound 4 µM)
HCC-15	0.949	0.849	0.38	0.565	0.288	0.641	0.603	0.225	0.338	0.274	0.428	0.35	0.306	0.153	0.172	0.904	0.747	0.64	0.449	0.264
HCC-44	0.986	0.974	0.871	0.836	0.88	0.995	0.896	0.939	0.904	1.06	0.975	0.863	0.182	0.396	0.549	0.879	0.809	0.833	0.753	0.453
HCC-78	1.37	0.884	0.944	0.384	0.526	0.721	0.698	0.676	0.775	0.786	–	0.538	0.386	0.324	0.487	0.351	0.307	0.353	0.285	0.285
HCC-366	1	0.971	–	0.879	0.759	0.402	0.348	–	0.322	0.217	0.12	0.0759	–	0.0517	0.0473	0.605	0.476	–	0.561	0.184
HCC-827	0.191	0.229	0.206	0.205	0.207	0.266	0.32	0.342	0.431	0.324	0.396	0.401	0.421	0.401	0.347	1.01	0.953	0.888	0.958	0.839
HOP-62	1.14	0.979	0.776	0.27	0.526	0.223	0.239	0.213	0.248	0.312	0.344	0.368	0.402	0.321	0.24	0.887	0.863	0.978	0.76	0.428
LC-2-ad	0.929	0.792	0.881	0.399	0.547	0.798	0.776	0.703	0.872	0.654	0.522	0.45	0.319	0.383	0.369	0.459	0.424	0.529	0.395	0.401

From the supplement of paper PMC10307832
